These results are taken from patent US12264164B2, “Method of treatment of symptoms of menopause” (KaNDy Therapeutics Limited, priority 2018, dated 2025).

The test system of this experiment is post-menopausal women experiencing moderate to severe vasomotor symptoms. Description: Efficacy assessments in the Phase 1b/2 study. The following applies: hard gelatin drug product, 150 mg once daily (three 50 mg capsules), doses tested 50-300 mg for 14 days. In kind it is in vivo, human. How it is done:
There were 13 or 15 subjects per dose group.
Repeat once-a-day dosing of 150 mg Compound A gave a geometric mean exposure AUC0-24 5164 ng.hr/mL of the drug at Day 14.

SMILES strings stand for the structures.

`Cc1cc(F)ccc1-c1cc(N2C[C@H]3COCCN3C[C@H]2CO)ncc1N(C)C(=O)C(C)(C)c1cc(C(F)(F)F)cc(C(F)(F)F)c1` [Compound A, 2-[3,5-Bis(trifluoromethyl)phenyl]-N-{4-(4-fluoro-2-methylphenyl)-6-[(7S,9aS)-7-(hydroxymethyl)hexahydropyrazino[2,1-c][1,4]oxazin-8(1H)-yl]-3-pyridinyl}-N,2-dimethylpropanamide]: the efficacy assessments entry was “maximum efficacy”.
